Measured values as given in patent US9896441B2 (Lycera Corporation, priority 2014, dated 2018).

Experiments:
[1] = target: T1, RORγ-LBD (Homo sapiens, UniProt P51449); assay: RORγ-Ligand Binding Domain (LBD) TR-FRET Assay; format: biochemical; details: for TR-FRET Assay Max Response: maximum response;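 as to TR-FRET Assay Max Response: 665/615 nm signal ratio set to 100 without ursolic acid or test compound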
T1 construct: made in house; host or cells: SF9 cells (baculovirus); used as diluted lysate
T1 sequence (P51449 269-508 limits assumed): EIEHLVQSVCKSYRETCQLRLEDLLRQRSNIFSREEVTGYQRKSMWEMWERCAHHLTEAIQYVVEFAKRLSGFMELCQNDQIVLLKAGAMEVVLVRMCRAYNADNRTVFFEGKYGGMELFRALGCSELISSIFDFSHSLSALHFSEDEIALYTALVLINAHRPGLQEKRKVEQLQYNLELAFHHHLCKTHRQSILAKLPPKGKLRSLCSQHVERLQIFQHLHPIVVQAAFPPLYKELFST
Procedure, shortened: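 SF9 lysate containing His-RORγ-LBD, ~3 nM final; coactivator peptide biotin-SRC1 LXXLL, 200 nM final; ursolic acid 2 μM final; DMSO 1% final; Tris pH 7.0 buffer with KCl, EDTA, DTT, BSA. TR-FRET format.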

[2] = target: T2, Gal4-RORγ-LBD (Homo sapiens, UniProt P51449); assay: Gal4-RORγ Luciferase Reporter Assay in HEK-293T Cells; format: cell-based; details: HEK-293 cells; for Gal4-RORγ Assay Max Response: maximum response
T2 construct: expressed in transfected cells
T2 sequence (P51449 269-508 limits assumed): T1 sequence (P51449 269-508 limits assumed)
Procedure, shortened: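 HEK-293 cells were co-transfected with Gal4-RORγ-LBD and a Gal4-luciferase reporter, then exposed overnight at 37 °C to compounds with […] ursolic acid present (0.2% DMSO). Luminescence was read with One-Glo after 10 min at RT, untreated signal was set as 100, and Max Response was taken as the upper plateau of a 4-parameter logistic fit.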

[3] = luciferase reporter, with ursolic acid
[4] = luciferase reporter, in presence of ursolic acid
[5] = with 2 μM ursolic acid (RORγ antagonist), highest test concentration 10 μM
[6] = ursolic acid present, luciferase readout

EC50 ([1]; RORγ-LBD TR-FRET)	EC50 [2, 3]	SMILES	other results
< 500 nM	500 to 5000 nM	COC(=O)CC[C@H]1CN(S(=O)(=O)c2cccc(C(F)(F)F)c2)c2cc(/C=C/c3ccccn3)ccc2O1 [Example 89DH, methyl (S,E)-3-(6-(2-(pyridin-2-yl)vinyl)-4-((3-(trifluoromethyl)phenyl)sulfonyl)-3,4-dihydro-2H-benzo[b][1,4]oxazin-2-yl)propanoate]	
< 500 nM	500 to 5000 nM	CCn1cc(S(=O)(=O)N2C[C@H](CCC(=O)OC)Oc3ccc(/C=C(\C)c4c(F)cccc4Cl)cc32)c(Cl)n1 [Example 86H, (S,E)-methyl 3-(4-((3-chloro-1-ethyl-1H-pyrazol-4-yl)sulfonyl)-6-(2-(2-chloro-6-fluorophenyl)prop-1-en-1-yl)-3,4-dihydro-2H-benzo[b][1,4]oxazin-2-yl)propanoate]	
		C/C(=C\c1ccc2c(c1)N(S(=O)(=O)c1cccc(C(F)(F)F)c1)C[C@H](CCN1CCC[C@H]1C(=O)O)O2)c1c(F)cccc1Cl [Example 124, (2-((S)-6-((E)-2-(2-Chloro-6-fluorophenyl)prop-1-en-1-yl)-4-((3-(trifluoromethyl)phenyl)sulfonyl)-3,4-dihydro-2H-benzo[b][1,4]oxazin-2-yl)ethyl)-L-proline]	EC50 ([1]; RORγ-LBD TR-FRET assay): < 500 nM; TR-FRET Assay Max Response ([1]; RORγ-LBD TR-FRET assay): *** (a value in the range of greater than 150 to 200); EC50 [2, 4]: 500 to 5000 nM; Gal4-RORγ Assay Max Response [2, 4]: ** (a value in the range of greater than 90 to 150)
> 10000 nM	> 10000 nM	CCOc1nn(CC)cc1S(=O)(=O)N1C[C@H](CCC(=O)O)Oc2ccc(/C=C/c3ccc(C#N)cc3)cc21 [Example 89DC, (S,E)-3-(6-(4-cyanostyryl)-4-((3-ethoxy-1-ethyl-1H-pyrazol-4-yl)sulfonyl)-3,4-dihydro-2H-benzo[b][1,4]oxazin-2-yl)propanoic acid]	
		C[C@H]1CN(S(=O)(=O)c2ccc(F)cc2)c2cc(COc3c(F)cccc3Cl)ccc2O1	EC50 [1, 5]: < 500 nM; EC50 [2, 6]: 5000 to 10000 nM
< 500 nM	< 500 nM	C/C(=C\c1ccc2c(c1)N(S(=O)(=O)c1cccc(C(F)(F)F)c1)C[C@H]([C@H](C)O)O2)c1c(F)cccc1Cl [Example 96, (S)-1-((R)-6-((E)-2-(2-Chloro-6-fluorophenyl)prop-1-en-1-yl)-4-((3-(trifluoromethyl)phenyl)sulfonyl)-3,4-dihydro-2H-benzo[b][1,4]oxazin-2-yl)ethan-1-ol]	
< 500 nM	500 to 5000 nM	CC(C)n1cnc(S(=O)(=O)N2C[C@H](CCC(=O)O)Oc3ccc(/C=C/c4c(F)cccc4Cl)cc32)c1 [Example 89DY, (S,E)-3-(6-(2-chloro-6-fluorostyryl)-4-((1-isopropyl-1H-imidazol-4-yl)sulfonyl)-3,4-dihydro-2H-benzo[b][1,4]-oxazin-2-yl)propanoic acid]	
		C/C(=C\c1ccc2c(c1)N(S(=O)(=O)c1cccc(C(F)(F)F)c1)C[C@H](CCN)O2)c1c(F)cccc1Cl [Example 111, (S,E)-2-(6-(2-(2-Chloro-6-fluorophenyl)prop-1-en-1-yl)-4-((3-(trifluoromethyl)phenyl)sulfonyl)-3,4-dihydro-2H-benzo[b][1,4]oxazin-2-yl)ethan-1-amine]	EC50 ([1]; RORγ-LBD TR-FRET assay): < 500 nM; TR-FRET Assay Max Response ([1]; RORγ-LBD TR-FRET assay): *** (a value in the range of greater than 150 to 200); EC50 [2, 4]: 500 to 5000 nM; Gal4-RORγ Assay Max Response [2, 4]: ** (a value in the range of greater than 90 to 150)
		CC/C(=C\c1ccc2c(c1)N(S(=O)(=O)c1cc(C(F)(F)F)cnc1OCCO)C[C@H](CCC(=O)O)O2)C(C)C [Example 191E, (S,E)-3-(6-(2-ethyl-3-methylbut-1-en-1-yl)-4-((2-(2-hydroxy-ethoxy)-5-(trifluoromethyl)-pyridin-3-yl)sulfonyl)-3,4-dihydro-2H-benzo[b][1,4]oxazin-2-yl)propanoic acid]	EC50 [1, 5]: < 500 nM; EC50 [2, 6]: 500 to 5000 nM
< 500 nM	500 to 5000 nM	COC(=O)CC[C@H]1CN(S(=O)(=O)c2cccc(C(F)(F)F)c2)c2cc(/C=C/c3c(OC)cccc3C(F)(F)F)ccc2O1 [Example 89ES, methyl (S,E)-3-(6-(2-methoxy-6-(trifluoromethyl)styryl)-4-((3-(trifluoromethyl)phenyl)-sulfonyl)-3,4-dihydro-2H-benzo[b][1,4]oxazin-2-yl)propanoate]	
< 500 nM	5000 to 10000 nM	C/C(=C\c1c(F)cccc1Cl)c1ccc2c(c1)N(S(=O)(=O)c1cccc(C(F)(F)F)c1)C[C@H](CCC(=O)O)O2 [Example 32, (S,E)-3-(6-(1-(2-Chloro-6-fluorophenyl)prop-1-en-2-yl)-4-((3-(trifluoromethyl)phenyl)sulfonyl)-3,4-dihydro-2H-benzo[b][1,4]oxazin-2-yl)propanoic acid]	
		COc1cc(S(=O)(=O)N2c3cc(/C=C(\C)c4c(F)cccc4Cl)ccc3C[C@@H](O)[C@H]2C)ccc1F (racemic) [Example 169, (2R,3R)-7-((E)-2-(2-Chloro-6-fluorophenyl)prop-1-en-1-yl)-1-((4-fluoro-3-methoxyphenyl)sulfonyl)-2-methyl-1,2,3,4-tetrahydroquinolin-3-ol]	EC50 ([1]; RORγ-LBD TR-FRET assay): < 500 nM; TR-FRET Assay Max Response ([1]; RORγ-LBD TR-FRET assay): *** (a value in the range of greater than 150 to 200); EC50 [2, 4]: < 500 nM; Gal4-RORγ Assay Max Response [2, 4]: * (a value in the range of 30 to 90)
< 500 nM	< 500 nM	C/C(=C\c1ccc2c(c1)N(S(=O)(=O)c1cccc(C(C)C)c1)C[C@H](CCC(=O)O)O2)c1c(F)cccc1Cl [Example 86Q, (S,E)-3-(6-(2-(2-chloro-6-fluorophenyl)prop-1-en-1-yl)-4-((3-isopropylphenyl)sulfonyl)-3,4-dihydro-2H-benzo[b][1,4]oxazin-2-yl)propanoic acid]	
< 500 nM	500 to 5000 nM	CCOc1ncc(Cl)cc1S(=O)(=O)N1C[C@H](CCC(=O)OC)Oc2ccc(/C=C/c3c(F)cccc3Cl)cc21 [Example 89CW, methyl (S,E)-3-(4-((5-chloro-2-ethoxypyridin-3-yl)sulfonyl)-6-(2-chloro-6-fluorostyryl)-3,4-dihydro-2H-benzo[b][1,4]oxazin-2-yl)propanoate]	
< 500 nM	< 500 nM	CCOc1sc(CC)nc1S(=O)(=O)N1C[C@H](CCC(=O)O)Oc2ccc(/C=C(\C)c3c(F)cccc3Cl)cc21 [Example 73, (S,E)-3-(6-(2-(2-Chloro-6-fluorophenyl)prop-1-en-1-yl)-4-((5-ethoxy-2-ethylthiazol-4-yl)sulfonyl)-3,4-dihydro-2H-benzo[b][1,4]oxazin-2-yl)propanoic acid]	
		O=S(=O)(c1cccc(C(F)(F)F)c1)N1C[C@@H](O)Cc2ccc(OCc3c(F)cccc3Cl)cc21 [Example 158, (S)-7-((2-Chloro-6-fluorobenzyl)oxy)-1-((3-(trifluoromethyl)phenyl)sulfonyl)-1,2,3,4-tetrahydroquinolin-3-ol]	EC50 ([1]; RORγ-LBD TR-FRET assay): < 500 nM; EC50 [2, 4]: < 500 nM
< 500 nM	500 to 5000 nM	CCC(=Cc1ccc2c(c1)N(S(=O)(=O)c1cc(C(F)(F)F)cnc1OCCO)C[C@H](CCC(=O)O)O2)CC [Example 95F, (S)-3-(6-(2-ethylbut-1-en-1-yl)-4-((2-(2-hydroxyethoxy)-5-(trifluoromethyl)pyridin-3-yl)sulfonyl)-3,4-dihydro-2H-benzo[b][1,4]oxazin-2-yl)propanoic acid]	
> 10000 nM	> 10000 nM	CCOc1nn(CC)cc1S(=O)(=O)N1C[C@H](CCC(=O)O)Oc2ccc(/C=C/c3cccnc3)cc21 [Example 89I, (S,E)-3-(4-((3-ethoxy-1-ethyl-1H-pyrazol-4-yl)sulfonyl)-6-(2-(pyridin-3-yl)vinyl)-3,4-dihydro-2H-benzo[b][1,4]oxazin-2-yl)propanoic acid]	
		C/C(=C\c1ccc2c(c1)N(S(=O)(=O)c1cccc(C(F)(F)F)c1)C[C@H]([C@@H](C)NS(C)(=O)=O)O2)c1c(F)cccc1Cl [Example 105, N—((R)-1-((R)-6-((E)-2-(2-Chloro-6-fluorophenyl)prop-1-en-1-yl)-4-((3-(trifluoromethyl)phenyl)sulfonyl)-3,4-dihydro-2H-benzo[b][1,4]oxazin-2-yl)ethyl)methanesulfonamide]	EC50 ([1]; RORγ-LBD TR-FRET assay): < 500 nM; TR-FRET Assay Max Response ([1]; RORγ-LBD TR-FRET assay): ** (a value in the range of greater than 90 to 150); EC50 [2, 4]: < 500 nM; Gal4-RORγ Assay Max Response [2, 4]: ** (a value in the range of greater than 90 to 150)
< 500 nM	< 500 nM	CC1CCCC/C1=C\c1ccc2c(c1)N(S(=O)(=O)c1cccc(C(F)(F)F)c1)C[C@H](CCC(=O)O)O2 (stereo partly drawn) [Example 95Q, 3-((2S)-6-((E)-(2-methylcyclohexylidene)methyl)-4-((3-(trifluoromethyl)phenyl)-sulfonyl)-3,4-dihydro-2H-benzo[b][1,4]oxazin-2-yl)propanoic acid]	
< 500 nM	< 500 nM	CCOc1nn(CC)cc1S(=O)(=O)N1C[C@H](CCC(=O)OC)Oc2ccc(/C=C/c3c(C)cccc3F)cc21 [Example 89AH, (S,E)-methyl 3-(4-((3-ethoxy-1-ethyl-1H-pyrazol-4-yl)sulfonyl)-6-(2-fluoro-6-methylstyryl)-3,4-dihydro-2H-benzo[b][1,4]-oxazin-2-yl)propanoate]	
